This passage reports EC50 results from PubChem BioAssay AID1241 (SRMLSC, 2008).

Structures are written as SMILES.

The test is described as follows: compounds inducing NF-kB luciferase expression – cell-based, SH-SY5Y, dose response (AID 1241). The following applies: SH-SY5Y NF-kB promoter luciferase reporter, fold induction. In general terms: In a reporter assay the amount or activity of a reporter protein is the signal.
As usually defined, the EC50 is the concentration at which the effect is half-maximal. Regarding `C/C(=N\NC(=O)c1ccc(Br)cc1)c1ccccc1`, the EC50 is 23400 nM.

Regarding `O=C(/C=C/c1ccccc1Cl)Nc1cccc(O)c1`, the EC50 was 1120 nM.

Turning to `COc1ccc(C(=O)/C=C2\Sc3ccccc3N2C)cc1`, the EC50 was 1750 nM.

With `Nc1nc(-c2ccccc2)nc2sc3c(c12)CCCC3`, the EC50 is 873 nM.

For `Brc1ccccc1-c1nc(-c2ccccc2)no1`, the concentration for a half-maximal effect (EC50) was 2080 nM.

As for `Nc1cccn2c(-c3ccc(Cl)c(Cl)c3)cnc12`, the EC50 was 2680 nM.

As to `COc1ccc2nc(SCc3ccccc3)nc(C)c2c1`, the EC50 is 6570 nM.

Consider `Cc1ccc(-c2noc(-c3ccccc3F)n2)cc1`, for which the EC50 is 6840 nM.

Consider `Cc1ccc2nc(-c3ccc(NC(=O)COC(=O)c4cncc(Br)c4)cc3)sc2c1`, for which the EC50 was 393 nM.

Consider `CNC(=O)Oc1cccc(-c2cn3cc(Cl)ccc3n2)c1`, for which the EC50 was 1260 nM.

In the case of `CN(C)c1ccc(/C=N/NC(=O)c2ccco2)cc1`, the EC50 was 18200 nM.

In the case of `Clc1ccc(-c2nc3n(n2)Cc2ccccc2-3)cc1`, the EC50 is 343 nM.

For the compound `Nc1nc(Nc2ccccc2)nc2ccccc12`, the EC50 is 1380 nM.

`Fc1ccc(-c2cnn3c(-c4ccncc4)ccnc23)cc1`: the EC50 was 1240 nM.

With `CN(C)c1ccc(-c2nnc(-c3cccs3)o2)cc1`, the EC50 is 2240 nM.

On to `CCOc1ccc2nc(C(=O)N3CCCC(C)C3)sc2c1` (stereo not given), for which the EC50 is 3300 nM.

As to `COc1ccc(NC(=O)c2nc3ccccc3s2)cc1`, the EC50 was 461 nM.

As to `COc1ccc(OCc2cccc(C(=O)O)c2)cc1`, the EC50 was 964 nM.

`O=C(O)c1cccc(N/N=C/c2cccs2)c1`: the EC50 was 1310 nM.

Take `Fc1ccccc1Cn1nnc(-c2ccc3c(c2)OCO3)n1`: the EC50 is 8430 nM.

For the compound `Cc1ccc(NC(=O)c2ccccc2)s1`, the EC50 was 6430 nM.

In the case of `CCOC(=O)c1cnc(Nc2nc3ccccc3o2)nc1CSC(=S)N(CC)CC`, the EC50 was 2320 nM.

Take `Cc1ccc(NC(=O)c2cc3c(s2)CCCC3)cc1`: the EC50 is 10400 nM.

With `CCNC(=S)NNC(=O)c1cc(-c2ccc(OCC)cc2)nc2ccccc12`, the EC50 was 1080 nM.

As for `CCOc1cccc2cc(-c3csc(NC(=O)CCC(=O)NCCN4CCCCC4C)n3)c(=O)oc12` (stereo not given), the 50% effective concentration (EC50) is 2760 nM.

For `CC(=O)Nc1ccc(-c2cc3ccccc3o2)cc1`, the EC50 was 5560 nM.

Turning to `O=C(Nc1ccc(Cl)cn1)c1cc2ccccc2o1`, the half-maximal effective concentration (EC50) was 2430 nM.

With `COc1cc(/C=N/O)ccc1OCc1ccccc1Cl`, the EC50 was 12100 nM.

`Cc1nn(-c2ccc([N+](=O)[O-])cc2)c(N)c1-c1ccccc1`: the EC50 is 6720 nM.

As to `CCS/C(N)=N/N=C/c1cc(C)ccc1O`, the EC50 is 3310 nM.

On to `CC(=O)Oc1ccc(Cl)cc1/C=C/c1ccc2ccccc2n1`, for which the EC50 was 836 nM.

Take `CCc1sc(C(=O)N2CCc3ccccc32)cc1C`: the EC50 was 1690 nM.

In the case of `CSc1ccc(C(=O)/C=C/c2ccc(N)cc2)cc1`, the EC50 was 3840 nM.

On to `Cc1nnc(SCC(=O)Nc2ccc(-c3nc4ccccc4s3)cc2)s1`, for which the EC50 was 328 nM.

For the compound `CCN(CC)c1ccc(NC(=O)c2ccco2)cc1`, the EC50 was 2500 nM.

As to `CC(=O)CSc1nc2cc3c(cc2cc1C#N)OCCO3`, the EC50 was 104 nM.

As to `Nc1cccc(-c2cn3cc(C(F)(F)F)cc(Cl)c3n2)c1`, the EC50 was 682 nM.

Regarding `CCN(CC)C(=O)c1sc2nc(-c3ccccc3)ccc2c1N`, the EC50 was 3090 nM.

On to `COc1ccc2c(c1)CC/C(=C/c1ccco1)C2=O`, for which the EC50 is 1730 nM.

As to `O=C1/C(=C\c2ccco2)CCC/C1=C\c1ccco1`, the EC50 was 5000 nM.

As for `O=C(/C=C/Nc1ccccc1F)c1cccs1`, the EC50 is 413 nM.

On to `O=C(Nc1nc2c(s1)CCCC2)c1ccc(Br)s1`, for which the EC50 is 1070 nM.

For the compound `COc1cccc(/C=C/C(=O)Nc2ccc3c(c2)OCCO3)c1OC`, the EC50 was 1050 nM.

With `O=C1C(C=Nc2ccc(F)cc2)=C(O)c2ccccc21`, the EC50 was 2410 nM.

As for `Cc1nc(Sc2nnnn2C)c2c3c(sc2n1)CCC3`, the EC50 was 1590 nM.

`Oc1c(C(Nc2ccccn2)c2ccccn2)ccc2cccnc12` (stereo not given): the EC50 was 3990 nM.

As for `Cc1cc(N)n2nc(-c3ccccc3)cc2n1`, the EC50 was 10000 nM.

Take `COc1ccc(-c2cc(=O)c3ccccc3s2)cc1`: the EC50 is 2060 nM.

Take `O=C(NC(=S)Nc1ccc2c(c1)OCCO2)c1ccccc1F`: the concentration for a half-maximal effect (EC50) is 1740 nM.

Turning to `O=C(Oc1c(CN2CCOCC2)cc(Cl)c2cccnc12)c1ccc(F)cc1`, the half-maximal effective concentration (EC50) was 13100 nM.

With `CCCCCCCOc1ccc(OC(=O)c2cccnc2)cc1`, the EC50 was 161 nM.

For the compound `O=C(Nc1ccc2nsnc2c1)c1ccc2c(c1)OCO2`, the EC50 was 1850 nM.

Regarding `COc1ccccc1Oc1ccc(N/C=C/C(=O)c2ccco2)cc1`, the EC50 is 7130 nM.

For the compound `COc1ccc2nc(NC(=O)c3ccoc3C)sc2c1`, the EC50 is 3990 nM.

For the compound `N#C/C(=N\Nc1ccc(F)cc1)C(=N)N1CCCCC1`, the concentration for a half-maximal effect (EC50) was 2970 nM.

Regarding `O=C(N/N=C/C(Br)=C\c1ccccc1)c1n[nH]c2c1CCC2`, the EC50 was 1090 nM.

Turning to `Fc1ccccc1SCc1nnc(-c2ccccc2Br)o1`, the EC50 is 818 nM.

Consider `COc1cccc(CNc2ccc(Br)cn2)c1O`, for which the EC50 was 3900 nM.

Regarding `COc1ccc(C(=O)/C=C/Nc2cccc(O)c2)cc1`, the EC50 was 986 nM.

For `CCOc1ccc(OCc2cccc(C(=O)O)c2)cc1`, the EC50 was 1850 nM.

Turning to `CCOC(=O)C1CCN(Cc2ccc(O)c3ncccc23)CC1`, the half-maximal effective concentration (EC50) was 2510 nM.

Consider `Cc1ccnc(NC(=O)/C=C/c2ccccc2[N+](=O)[O-])c1`, for which the EC50 is 557 nM.

On to `CN(C)c1ccc(/C=c2\sc3n(c2=O)CCCN=3)cc1`, for which the EC50 was 11600 nM.

As to `CC(=O)Nc1cccc(-c2csc(Nc3ccc(C)cn3)n2)c1`, the EC50 was 702 nM.

With `CC1CCN(C(=O)c2cc(-c3ccccc3O)on2)CC1`, the concentration for a half-maximal effect (EC50) is 8790 nM.

Regarding `Cc1ccsc1/C=N/Nc1cccc(C(=O)O)c1`, the concentration for a half-maximal effect (EC50) was 1050 nM.

In the case of `O=C(NCCC1=CCCCC1)c1ccc(Cl)cc1`, the EC50 is 198 nM.

In the case of `CCCCc1ccc(-c2nc(-c3ccncc3)no2)cc1`, the EC50 was 4140 nM.

On to `C(=N\NC1=Nc2cccc3cccc1c23)/c1ccccn1`, for which the EC50 was 7600 nM.

Turning to `Cc1ccc(/C=C/C(=O)N2CCc3ccccc32)o1`, the concentration giving a half-maximal response (EC50) is 1330 nM.

Take `COc1ccc(-c2cc(-c3ccccc3O)[nH]n2)cc1OC`: the EC50 was 2440 nM.

Turning to `CC(=O)N(/N=C1\Sc2ccccc2C1=O)c1cccc(C)c1`, the EC50 was 22300 nM.

Consider `Cn1c(-c2ccco2)nc2cc3ccccc3cc21`, for which the concentration giving a half-maximal response (EC50) was 816 nM.

`Cc1ccc2nc(-c3ccc(NC(=O)CCN4C(=O)c5ccccc5C4=O)cc3)sc2c1`: the EC50 was 155 nM.

Regarding `O=C(Nc1cccnc1Cl)c1ccc2c(Cl)c3c(nc2c1)CCC3`, the EC50 is 674 nM.

Take `COc1ccc(-c2nnc(-c3ccc(N)cc3)o2)cc1`: the EC50 is 2120 nM.

Consider `CCOc1ccc2nc(-c3ccccc3)[nH]c2c1`, for which the EC50 is 1140 nM.

Take `O=C(c1ccccc1)c1cnc(-c2ccc(Cl)cc2)s1`: the EC50 was 1250 nM.

Consider `COc1ccc(CSc2nc3ccccc3[nH]2)cc1`, for which the EC50 was 4290 nM.

On to `COc1cccc(C(=O)/C=C/Nc2cc(C)ccc2O)c1`, for which the concentration giving a half-maximal response (EC50) is 5510 nM.

Take `CCOC(=O)c1c(N)sc(C(=O)Nc2ccccc2)c1C`: the EC50 was 1930 nM.

For the compound `Cc1ccc(C)c(NC(=S)c2ccccn2)c1`, the EC50 is 6690 nM.

`Cc1cc(C)c2nc(NC(=O)C3CCCO3)sc2c1` (stereo not given): the EC50 is 18600 nM.

As for `Cc1ccccc1/C=C1\CCCc2ccccc2C1=O`, the EC50 was 24900 nM.

Consider `Cc1ccc(/C=C/c2nc3ccccc3[nH]2)o1`, for which the EC50 is 2060 nM.

For `NC(=O)c1ccccc1N/C=C/C(=O)c1ccccc1`, the EC50 was 1040 nM.

As to `COc1ccccc1-c1nc(-c2ccc(Br)o2)no1`, the EC50 is 1040 nM.

Regarding `N#CC1=C2SC=C(c3ccc(Br)cc3)N2CCCC1=O`, the half-maximal effective concentration (EC50) was 19400 nM.

Regarding `COC(=O)CSc1nc(-c2cccs2)ccc1C#N`, the EC50 was 5620 nM.

Regarding `Cc1ccc(NC(=O)c2cc3ccccc3o2)cc1S(=O)(=O)N(C)C`, the EC50 was 2040 nM.

On to `O=C(Nc1ccon1)c1cc2c(s1)CCCC2`, for which the EC50 is 4130 nM.

As for `CCOC(=O)c1sc2nc3c(cc2c1N)COC(C)(CC)C3` (stereo not given), the EC50 is 1450 nM.

For the compound `COC(=O)c1cccc(NC(=O)c2onc3c2CCCC3)c1`, the EC50 was 2040 nM.

In the case of `Cc1nc(NC(=O)c2csc3ccccc23)sc1C`, the EC50 was 943 nM.

As to `CC(C)(C)c1ccc(C(=O)Nc2cccc([N+](=O)[O-])c2)cc1`, the EC50 is 15800 nM.

Consider `COc1ccc(-c2cn3c4c(sc3n2)CCCC4)cc1`, for which the EC50 was 650 nM.

For `Cc1ccc2nc(-c3ccc(NC(=O)COC(=O)c4ccc(=O)[nH]c4)cc3)sc2c1`, the EC50 was 660 nM.

`Cc1ccc(-c2cc(-c3ccccc3Cl)[nH]n2)c(O)c1`: the EC50 was 7150 nM.

As to `Nc1nn(-c2ccccc2)c(N)c1N=Nc1ccc2c(c1)OCO2`, the EC50 was 1600 nM.

Take `CSc1ccc(/C=C/c2ccc3cccc(O)c3n2)cc1`: the concentration for a half-maximal effect (EC50) was 2490 nM.

For the compound `O=C(NCCCn1ccnc1)c1cc(-c2cccs2)on1`, the 50% effective concentration (EC50) is 24100 nM.

In the case of `Oc1ccccc1-c1cc(-c2ccccc2Cl)[nH]n1`, the concentration for a half-maximal effect (EC50) was 1240 nM.

With `O=C1C=C(Nc2ccccc2)C(=O)c2ccccc21`, the half-maximal effective concentration (EC50) is 1350 nM.

Regarding `CCOC(=O)c1sc(NC(=O)c2ccccc2)cc1C`, the EC50 is 5740 nM.

Take `O=C(O)c1ccc(/C=N/Nc2ccc(F)cc2F)cc1`: the EC50 is 1230 nM.

With `CC(=O)Nc1cccc(-c2csc(Nc3ccccn3)n2)c1`, the 50% effective concentration (EC50) was 2670 nM.

For the compound `CCN(CC)c1ccc(NC(=O)c2ccc(Br)o2)cc1`, the EC50 is 23900 nM.

With `Cc1ccccc1Nc1nc(N)c2ccccc2n1`, the EC50 is 1990 nM.

`CCOc1ccc(NC(=O)c2ccco2)c([N+](=O)[O-])c1`: the EC50 was 18900 nM.

Consider `O=C(/C=C\Nc1cccc(F)c1)c1cccs1`, for which the EC50 was 347 nM.

With `CSC(=S)N/N=C(\C)c1ccccc1`, the EC50 is 1170 nM.

Regarding `C=CCNc1ncnc2c1cnn2-c1ccc(Cl)cc1`, the half-maximal effective concentration (EC50) is 1820 nM.

In the case of `COc1ccc2c(c1)CC/C2=N\OC(=O)c1ccccc1C`, the EC50 is 1970 nM.

As to `COc1ccc(C(=O)/C=C/Nc2ccc(C)cn2)cc1OC`, the EC50 is 6490 nM.

As for `COc1cccc(-c2nc3cc(C)ccc3o2)c1`, the EC50 is 1050 nM.
